Experimental data published in patent publication US11679109B2, “SMARCA degraders and uses thereof” (Kymera Therapeutics, Inc., priority 2019, dated 2023).

What was measured:
Format in all cases: cell-based
SMARCA4 = target: T1, SMARCA4 (Homo sapiens, UniProt P51532); test: SMARCA4 Western blot MV4-11 degradation; settings: MV4-11 cells, 24 h; for DC50: read-out: SMARCA4 MSD MV411 degradation 24 h: Mean external-Abs DC50; for Dmax: read-out: SMARCA4 MSD MV411 degradation 24 h: average Dmax %
T1 construct: SMARCA2/SMARCA4 protein degradation selectivity in MV4-11 cells; endogenous in cells; host or cells: MV4-11
T1 sequence (P51532 whole entry): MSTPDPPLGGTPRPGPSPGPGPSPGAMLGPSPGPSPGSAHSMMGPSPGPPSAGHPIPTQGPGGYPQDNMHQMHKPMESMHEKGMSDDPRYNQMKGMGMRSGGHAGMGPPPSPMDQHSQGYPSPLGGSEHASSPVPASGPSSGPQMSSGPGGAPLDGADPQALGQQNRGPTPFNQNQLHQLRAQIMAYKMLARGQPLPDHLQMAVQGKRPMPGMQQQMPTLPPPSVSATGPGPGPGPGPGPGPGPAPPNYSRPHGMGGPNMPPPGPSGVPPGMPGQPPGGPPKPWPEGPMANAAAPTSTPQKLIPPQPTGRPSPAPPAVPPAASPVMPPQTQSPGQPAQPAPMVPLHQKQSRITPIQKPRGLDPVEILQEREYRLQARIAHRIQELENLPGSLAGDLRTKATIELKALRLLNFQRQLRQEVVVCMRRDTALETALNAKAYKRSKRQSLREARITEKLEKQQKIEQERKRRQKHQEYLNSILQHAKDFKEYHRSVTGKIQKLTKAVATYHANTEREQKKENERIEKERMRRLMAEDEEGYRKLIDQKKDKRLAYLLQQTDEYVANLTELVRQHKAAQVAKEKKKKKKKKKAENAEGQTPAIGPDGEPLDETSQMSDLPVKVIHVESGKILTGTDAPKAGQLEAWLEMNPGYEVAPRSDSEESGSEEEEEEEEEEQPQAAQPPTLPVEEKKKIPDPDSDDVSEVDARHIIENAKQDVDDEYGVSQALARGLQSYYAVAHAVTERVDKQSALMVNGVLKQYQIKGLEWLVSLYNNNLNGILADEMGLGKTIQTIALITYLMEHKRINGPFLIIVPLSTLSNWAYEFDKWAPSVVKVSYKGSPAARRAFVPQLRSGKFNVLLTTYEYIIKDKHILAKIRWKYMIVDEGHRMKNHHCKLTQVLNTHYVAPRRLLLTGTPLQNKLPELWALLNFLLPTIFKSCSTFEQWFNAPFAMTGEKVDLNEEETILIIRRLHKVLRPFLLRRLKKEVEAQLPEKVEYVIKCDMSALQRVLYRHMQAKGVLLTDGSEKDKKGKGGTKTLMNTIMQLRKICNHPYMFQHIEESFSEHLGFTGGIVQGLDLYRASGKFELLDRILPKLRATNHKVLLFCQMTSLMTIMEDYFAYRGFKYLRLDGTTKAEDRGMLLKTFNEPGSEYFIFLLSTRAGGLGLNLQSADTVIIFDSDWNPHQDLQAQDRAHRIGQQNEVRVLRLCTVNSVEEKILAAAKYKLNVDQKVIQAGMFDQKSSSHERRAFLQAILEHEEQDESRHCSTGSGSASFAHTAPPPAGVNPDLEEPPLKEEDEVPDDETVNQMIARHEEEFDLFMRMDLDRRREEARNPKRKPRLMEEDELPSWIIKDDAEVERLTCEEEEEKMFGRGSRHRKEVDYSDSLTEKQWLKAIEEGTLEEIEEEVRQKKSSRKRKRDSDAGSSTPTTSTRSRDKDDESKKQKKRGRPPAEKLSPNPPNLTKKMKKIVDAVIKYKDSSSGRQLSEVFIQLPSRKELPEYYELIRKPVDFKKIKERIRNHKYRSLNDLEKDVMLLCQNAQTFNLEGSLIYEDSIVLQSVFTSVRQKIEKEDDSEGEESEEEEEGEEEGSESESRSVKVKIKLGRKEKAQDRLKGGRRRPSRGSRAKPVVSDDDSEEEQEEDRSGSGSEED
Procedure: Cells were seeded into 6-well plates (MV4-11: 4×10^6 cells/well/1 ml) and 1 ml of 2× compound solution was added into the well to make the final concentration and the plates were mixed well and incubated for 24 hours (No cytotoxicity was observed). The cell were collected with media and spun at 3000 rpm for 5 minutes. The supernatant was aspirated and the well and the cells were washed with cold PBS once and combined for centrifugation again; the supernatant aspirated again. 200 uL pre-chilled RIPA lysis buffer (Boston BioProducts BP-115D) with protease/phosphatase inhibitor (Roche 05892791001/Roche 04906837001) was directly added into the tube to lyze the cells for 20 minutes on ice. The cell lysate were collected into EP tubes and spun at 13000 rpm for 20 minutes and 72 uL supernatant was transferred to a fresh EP tube containing 18 uL of 5× loading buffer (Beyotime Bio P0015) to make the loading samples. The samples were heated to 100° C. for 10 minutes and cooled to RT and microcentrifuged. 20 uL of samples were loaded onto SDS-PAGE gel (Novex, WG1402BOX) and the gel was run at 80 V for 20 minutes and 120 V for 1.5 hours. The samples were electrotransfer to a NC membrane using wet-transfer method with 250 mA for 2.5 hours. The membrane was blocked with LICOR blocking buffer (LICOR, 927-50000) for 1 hour. The membrane was washed three times with TBST(CST #9997S), 5 minutes each. Incubation was performed with primary antibody prepared in blocking buffer with 0.1% Tween-20 (Solarbio, P8220) at 4° C. overnight (Anti-SMARCA2/BRM antibody (ab15597) 1:500; Anti-BRG1 antibody [EPR3912] (ab108318) 1:1000; Rabbit anti-Baf180 antibody [EPR15860] (Abeam,ab 196022) 1:1000; mouse anti-beta-Actin (8H10D10) (CST #3700) 1:10000). The membrane was washed three times with TBST, 5 minutes each. Incubation with secondary antibody was performed for 1 hour at RT (anti-rabbit IgG (Licor, 926-32211) 1:5000; anti-mouse IgG (LI-COR, 926-68070) 1:5000). The membrane was washed three times with 5 minutes each and lastly the LiCOR was read.
(§1) The letter codes for SMARCA2/4 degradation potency (DC50) include: A (<100 nM), B (100-500 nM), C (501-1000 nM), and D (>1000 nM). The letter codes for the percentage of SMARCA degradation after 24 hours (Dmax %) include: A (>90% degradation), B (>70-90% degradation), C (50-70% degradation), and D (<50% degradation).

SMARCA2 [1] = target: T2, SMARCA2 (Homo sapiens, UniProt P51531); test: SMARCA2 Western blot MV4-11 degradation; parameters: SMARCA2/SMARCA4 protein degradation selectivity in MV4-11 cells; endogenous in cells; host or cells: MV4-11; settings: MV4-11 cells, 24 h; for DC50: read-out: SMARCA2 MSD MV411 degradation 24 h: Mean external-Abs DC50; for Dmax: read-out: SMARCA2 MSD MV411 degradation 24 h: average Dmax %
T2 sequence (P51531 whole entry): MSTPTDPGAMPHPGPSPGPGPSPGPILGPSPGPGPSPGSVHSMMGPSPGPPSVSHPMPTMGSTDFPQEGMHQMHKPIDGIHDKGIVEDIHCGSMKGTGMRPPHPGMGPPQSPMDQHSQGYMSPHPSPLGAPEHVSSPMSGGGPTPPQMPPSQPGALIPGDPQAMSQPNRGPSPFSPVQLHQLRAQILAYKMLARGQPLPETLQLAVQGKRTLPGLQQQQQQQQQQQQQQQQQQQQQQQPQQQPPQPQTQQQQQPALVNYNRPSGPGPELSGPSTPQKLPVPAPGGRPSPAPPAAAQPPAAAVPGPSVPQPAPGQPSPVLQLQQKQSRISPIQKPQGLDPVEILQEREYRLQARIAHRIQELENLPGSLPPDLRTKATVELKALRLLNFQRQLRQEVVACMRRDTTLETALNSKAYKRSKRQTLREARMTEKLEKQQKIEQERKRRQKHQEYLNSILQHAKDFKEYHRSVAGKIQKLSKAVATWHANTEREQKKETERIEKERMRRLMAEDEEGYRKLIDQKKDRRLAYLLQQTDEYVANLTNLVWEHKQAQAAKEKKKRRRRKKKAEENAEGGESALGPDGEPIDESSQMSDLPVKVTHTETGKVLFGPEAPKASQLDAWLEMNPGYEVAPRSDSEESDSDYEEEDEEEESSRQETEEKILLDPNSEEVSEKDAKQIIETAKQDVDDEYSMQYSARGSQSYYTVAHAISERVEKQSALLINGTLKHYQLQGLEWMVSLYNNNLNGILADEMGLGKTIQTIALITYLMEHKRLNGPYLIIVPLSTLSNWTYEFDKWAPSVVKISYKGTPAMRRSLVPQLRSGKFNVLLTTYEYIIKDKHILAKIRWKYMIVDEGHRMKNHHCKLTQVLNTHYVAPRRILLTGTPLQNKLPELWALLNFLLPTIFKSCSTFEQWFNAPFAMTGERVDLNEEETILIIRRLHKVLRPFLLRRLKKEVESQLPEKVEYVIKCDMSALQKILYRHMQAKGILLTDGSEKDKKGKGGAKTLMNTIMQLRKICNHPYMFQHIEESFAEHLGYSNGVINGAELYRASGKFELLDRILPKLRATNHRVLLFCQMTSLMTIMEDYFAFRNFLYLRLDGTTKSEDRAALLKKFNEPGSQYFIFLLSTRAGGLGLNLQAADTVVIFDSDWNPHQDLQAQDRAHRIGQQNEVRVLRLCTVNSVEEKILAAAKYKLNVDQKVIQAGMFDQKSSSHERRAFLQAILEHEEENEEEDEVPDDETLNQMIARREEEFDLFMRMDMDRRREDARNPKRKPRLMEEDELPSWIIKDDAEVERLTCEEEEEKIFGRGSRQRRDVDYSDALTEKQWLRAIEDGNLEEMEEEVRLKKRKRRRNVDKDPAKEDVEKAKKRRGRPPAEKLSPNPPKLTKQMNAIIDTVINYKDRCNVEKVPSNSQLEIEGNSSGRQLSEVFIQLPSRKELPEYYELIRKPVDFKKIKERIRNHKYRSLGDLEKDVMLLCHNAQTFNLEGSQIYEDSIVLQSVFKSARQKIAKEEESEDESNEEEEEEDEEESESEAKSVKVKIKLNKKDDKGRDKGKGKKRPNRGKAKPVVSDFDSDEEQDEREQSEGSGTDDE

SMARCA2 [2] = target: T2, SMARCA2; test: MSD SMARCA2 degradation in A549 cell line; settings: A549 cells, 24 h; for DC50: read-out: SMARCA2 MSD A549 degradation 24 h: Average external-Abs DC50
Procedure: Cells were seeded into 96-well plates (A549 cells: 2×10^4 cells/well/100 ul media) and incubated overnight. The next day, 200 nL compound were added into the intermediate plate with Echo (Labcyte 550) from source plate containing a 3-fold serial dilution from top concentration of 1 mM. The culture medium was changed with 80 ul of fresh medium and 80 uL of 2× compound solution was added into the well to make a final concentration of 1000 nM, 333.3 nM, 111.1 nM, 37.04 nM, 12.35 nM, 4.115 nM, 1.372 nM, 0.457 nM, 0.152 nM and 0 nM (DMSO). The wells were mixed and then incubated for 24 hours. The media was aspirated from the cultures and 60 ul pre-chilled PIPA lysis buffer (Boston BioProducts BP-115D) with protease/phosphatase inhibitor (Roche 05892791001/Roche 04906837001) was added into the well to lyze the cells for 20 minutes at 4° C. The MSD plate (L15XA) was coated with 40 uL cell lysate and incubated at 4° C. overnight. The next day, the plate was washed three times with TBST (CST #9997S), 150 ul/well. The MSD plates was blocked with 150 ul blocking buffer per well and shaked for 1 hr at RT, 600 rpm. The blocking buffer was 3% Blocker A (MSD, R93BA-4) in TBST. The MSD plate was washed three times with 150 uL/well of TBST and 25 ul/well of detection antibody (Rabbit anti-SMARCA2/BRM antibody, 100 μg/mL, ab223735) was added at final concentration of 1 ug/mL diluted in 1% Blocking buffer and shaken for 1 hour at RT, 600 rpm. The MSD plate was washed three times with 150 ul/well of TBST and 25 ul/well of SULFO-TAG anti-rabbit antibody (MSD, R32AB-1) was added at final concentration of 1 ug/ml diluted in 1% Blocking buffer and shaken for 1 hour at RT, 600 rpm. The MSD plate was washed three times with 150 uL/well of TBST and 150 ul/well of 2×MSD reading buffer diluted from 4× (MSD, R92TC-2) with water was added. Lastly, the MSD instrument was read.
as §1, with “SMARCA2” for “SMARCA2/4”

SMILES | DC50 (SMARCA4) [nM] | Dmax (SMARCA4) [%] | DC50 (SMARCA2 [1]) [nM] | Dmax (SMARCA2 [1]) [%] | Dmax (SMARCA2 [2]) [%] | DC50 (SMARCA2 [2]) [nM]
Cc1ncsc1-c1ccc(CNC(=O)[C@@H]2C[C@@H](O)CN2C(=O)[C@@H](NC(=O)[C@H]2CC3(C2)C[C@H](N2CCC(c4cnc(N5CCc6[nH]c7nnc(-c8ccccc8O)cc7c6[C@H]5C)nc4)CC2)C3)C(C)(C)C)cc1 (single isomer, unassigned) [I-40] | > 1000 | < 50 | < 100 | 70 to 90 | 70 to 90 | 100 to 500
Cc1ncsc1-c1ccc(CNC(=O)[C@@H]2C[C@@H](O)CN2C(=O)[C@@H](NC(=O)[C@H]2CC3(C2)C[C@H](N2CCC(c4cnc(N5CCc6[nH]c7nnc(-c8ccccc8O)cc7c6[C@H]5C)nc4)CC2)C3)C(C)(C)C)cc1 (single isomer, unassigned) [I-41] | > 1000 |  | < 100 |  |  | 100 to 500
Cc1ncsc1-c1ccc(CNC(=O)[C@@H]2C[C@@H](O)CN2C(=O)[C@@H](NC(=O)C2CC3(C2)CC(N2CCC(c4ccnc(N5CCc6[nH]c7nnc(-c8ccccc8O)cc7c6[C@H]5C)n4)CC2)C3)C(C)(C)C)cc1 (stereo partly drawn) [I-13, (2S,4R)-4-hydroxy-1-((S)-2-(6-(4-(2-((R)-3-(2-hydroxyphenyl)-5-methyl-7,8-dihydro-5H-pyrido[3′,4′:4,5]pyrrolo[2,3-c]pyridazin-6(9H)-yl)pyrimidin-4-yl)piperidin-1-yl)spiro[3.3]heptane-2-carboxamido)-3,3-dimethylbutanoyl)-N-(4-(4-methylthiazol-5-yl)benzyl)pyrrolidine-2-carboxamide] | > 1000 | 50 to 70 | 501 to 1000 | 50 to 70 | < 50 | > 1000
Cc1ncsc1-c1ccc(CNC(=O)[C@@H]2C[C@@H](O)CN2C(=O)[C@@H](NC(=O)C2CC3(C2)CC(N2CCC(c4ccnc(N5CCc6[nH]c7nnc(-c8ccccc8O)cc7c6[C@@H]5C)n4)CC2)C3)C(C)(C)C)cc1 (stereo partly drawn) [I-14, (2S,4R)-4-hydroxy-1-((S)-2-(6-(4-(2-((S)-3-(2-hydroxyphenyl)-5-methyl-7,8-dihydro-5H-pyrido[3′,4′:4,5]pyrrolo[2,3-c]pyridazin-6(9H)-yl)pyrimidin-4-yl)piperidin-1-yl)spiro[3.3]heptane-2-carboxamido)-3,3-dimethylbutanoyl)-N-(4-(4-methylthiazol-5-yl)benzyl)pyrrolidine-2-carboxamide] | > 1000 | 50 to 70 | < 100 | 70 to 90 | 70 to 90 | 100 to 500
Cc1ncsc1-c1ccc(CNC(=O)[C@@H]2C[C@@H](O)CN2C(=O)[C@@H](NC(=O)C2CC3(C2)CC(N2CCC(c4cnc(N5CCc6[nH]c7nnc(-c8ccccc8O)cc7c6[C@@H]5C)nc4)CC2)C3)C(C)(C)C)cc1 (stereo partly drawn) [I-37, (2S,4R)-4-hydroxy-1-((S)-2-(6-(4-(2-((S)-3-(2-hydroxyphenyl)-5-methyl-7,8-dihydro-5H-pyrido[3′,4′:4,5]pyrrolo[2,3-c]pyridazin-6(9H)-yl)pyrimidin-5-yl)piperidin-1-yl)spiro[3.3]heptane-2-carboxamido)-3,3-dimethylbutanoyl)-N-(4-(4-methylthiazol-5-yl)benzyl)pyrrolidine-2-carboxamide] |  |  | 100 to 500 | 50 to 70 | 70 to 90 | 100 to 500
Cc1ncsc1-c1ccc(CNC(=O)[C@@H]2C[C@@H](O)CN2C(=O)[C@@H](NC(=O)C2CC3(C2)CC(N2CCC(c4cnc(N5CCc6[nH]c7nnc(-c8ccccc8O)cc7c6[C@H]5C)nc4)CC2)C3)C(C)(C)C)cc1 (stereo partly drawn) [I-38, (2S,4R)-4-hydroxy-1-((S)-2-(6-(4-(2-((R)-3-(2-hydroxyphenyl)-5-methyl-7,8-dihydro-5H-pyrido[3′,4′:4,5]pyrrolo[2,3-c]pyridazin-6(9H)-yl)pyrimidin-5-yl)piperidin-1-yl)spiro[3.3]heptane-2-carboxamido)-3,3-dimethylbutanoyl)-N-(4-(4-methylthiazol-5-yl)benzyl)pyrrolidine-2-carboxamide] | > 1000 | < 50 | < 100 | 70 to 90 | > 90 | < 100
